Results from US8173812B2, “Quinolines and their therapeutic use” (Pulmagen Therapeutics (Asthma) Limited, priority 2007, dated 2012).

Target: T1, CRTH2 receptor (Homo sapiens, UniProt Q9Y5Y4)
T1 sequence (Q9Y5Y4 1-395): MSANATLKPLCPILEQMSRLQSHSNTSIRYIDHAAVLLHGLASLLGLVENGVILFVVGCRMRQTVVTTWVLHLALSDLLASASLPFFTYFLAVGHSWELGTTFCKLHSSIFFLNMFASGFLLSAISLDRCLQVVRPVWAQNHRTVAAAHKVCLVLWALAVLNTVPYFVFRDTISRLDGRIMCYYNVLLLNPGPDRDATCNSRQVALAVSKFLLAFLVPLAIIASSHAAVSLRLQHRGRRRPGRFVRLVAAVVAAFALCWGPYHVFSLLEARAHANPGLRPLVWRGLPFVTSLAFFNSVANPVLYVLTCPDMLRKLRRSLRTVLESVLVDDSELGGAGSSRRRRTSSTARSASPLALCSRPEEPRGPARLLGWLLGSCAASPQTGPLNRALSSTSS
Assay: CRTH2 radioligand binding assay ([3H]-PGD2 displacement, SPA)
Conditions: HEK cell membranes expressing the CRTH2 receptor, 1 nM [3H]-PGD2
Method: Radioligand Binding Assay
The receptor binding assay is performed in a final volume of 200 μL binding buffer [10 mM BES (pH 7.4), 1 mM EDTA, 10 mM manganese chloride, 0.01% BSA] and 1 nM [^3H]-PGD2 (Amersham Biosciences UK Ltd). Ligands are added in assay buffer containing a constant amount of DMSO (1% by volume). Total binding is determined using 1% by volume of DMSO in assay buffer and non-specific binding is determined using 10 μM of unlabeled PGD2 (Sigma). Human embryonic kidney (HEK) cell membranes (3.5 μg) expressing the CRTH2 receptor are incubated with 1.5 mg wheatgerm agglutinin SPA beads and 1 nM [^3H]-PGD2 (Amersham Biosciences UK Ltd) and the mixture incubated for 3 hours at room temperature. Bound [^3H]-PGD2 is detected using a Microbeta TRILUX liquid scintillation counter (Perkin Elmer). Compound IC50 value is determined using a 6-point dose response curve in duplicate with a semi-log compound dilution series. IC50 calculations are performed using Excel and XLfit (Microsoft), and this value is used to determine a Ki value for the test compound using the Cheng-Prusoff equation.

| SMILES | IC50 [nM] |
| --- | --- |
| CCc1nc2c(F)ccc(OCC(=O)O)c2c(OC(F)F)c1Cc1ccc(-n2cccn2)cc1 [Example 1, [4-difluoromethoxy-2-ethyl-8-fluoro-3-(4-pyrazol-1-ylbenzyl)quinolin-5-yloxy]acetic acid] | 5.4 |
| CCc1nc2c(F)ccc(OCC(=O)O)c2c(OC(F)F)c1Cc1ccc(-c2ncco2)cc1 [Example 2, [4-difluoromethoxy-2-ethyl-8-fluoro-3-(4-oxazol-2-ylbenzyl)quinolin-5-yloxy]acetic acid] | 6.3 |
